Values of other authors, collected in US10722518B2, “Oxazine derivative for use in the treatment or prevention of cerebral amyloid angiopathy” (Novartis AG, priority 2016, dated 2020).

System: APP23 mice
Conditions: aged APP23 mice treated for three months; cited from earlier work

## Cc1cc(C#N)cnc1C(=O)Nc1ccc(F)c([C@]2(C)CO[C@@](C)(C(F)(F)F)C(N)=N2)c1 [NB360]
  effect on CAA-related microhaemorrhage (volumetric MRI): no effect
